Source: ChEMBL document CHEMBL4834424, “Targeting Chikungunya Virus Replication by Benzoannulene Inhibitors” (J Med Chem, 2021)
Activity calls are given as the source filed them. No cut-off for these calls is given here.

Tests used:
Chikungunya virus [1] = format: functional, organism-based; conditions: 181-25, NHDF, dose 20.0 µM, time 13.0 hrs
Chikungunya virus [2] = experiment: (§1) Antiviral activity against CHIKV 99659 infected in Asian tiger mosquito C6/36 cells assessed as reduction in virus titer in cell supernatant by measuring inhibition of plaque formation using Vero cells and measured following infection of supernatants with Vero cells for 48 hrs pi by serial dilution plaque based methylene blue dye analysis; format: functional; conditions: Chikungunya virus, 99659, C6
Chikungunya virus [3] = experiment: Antiviral activity against resistance mutation induced CHIKV-117/119 infected in […] cells assessed as viral infectivity in Vero cells at 10 uM measured up to 24 hrs of post infection by supernatant was quantified by plaque assay; format: functional, organism-based; conditions: time hrs <=24
[4] = (§2) Cytotoxicity against human NHDF cells assessed as cell viability measured after 24 hrs by Cell Titer Glo luminescent assay; format: cell-based; conditions: NHDF cells
Chikungunya virus [5] = experiment: (§3) Antiviral activity against CHIKV infected in human NHDF cells assessed as reduction in virus titer in cell supernatant by measuring inhibition of plaque formation using Vero cells at 10 uM pretreated with NHDF cells followed by infected with virus incubated for 24 hrs and measured following infection of supernatants with Vero cells for 48 hrs by plaque based methylene blue dye analysis; format: functional; conditions: time 72 hrs
Chikungunya virus [6] = experiment: Antiviral activity against CHIKV-nLuc RNA transfected NHDF cells assessed as decrease in Nano-luc signal at 20 uM pretreated 24 hrs before transfection in presence of uridine measured after 24 hrs by Nano-Glo luciferase assay; format: functional, organism-based; conditions: time 48.0 hrs
Chikungunya virus [7] = experiment: Antiviral activity against CHIKV-nLuc RNA transfected NHDF cells assessed as decrease in Nano-luc signal at 20 uM pretreated 24 hrs before transfection in presence of guanosine measured after 24 hrs by Nano-Glo luciferase assay; format: functional, organism-based
[8] = tested on: Venezuelan equine encephalitis virus; experiment: as §1, with “Venezuelan equine encephalitis virus TC83” for “CHIKV 99659”; format: functional
Chikungunya virus [9] = format: functional, organism-based; conditions: 181-25, NHDF, dose 20.0 µM, time 13.0 hrs; remark: listed apart in the source
[10] = target: Dihydroorotate dehydrogenase (quinone), mitochondrial (Homo sapiens, UniProt Q02127)
Chikungunya virus [11] = experiment: Antiviral activity against resistance mutation induced CHIKV-119 infected in […] cells assessed as viral infectivity in Vero cells at 10 uM measured up to 24 hrs of post infection by supernatant was quantified by plaque assay; format: functional, organism-based; conditions: time hrs <=24
dengue virus type 2 = experiment: as §1, with “DENV2” for “CHIKV 99659”, “HEK293” for “Asian tiger mosquito C6/36”, “at 10 uM” for “and”; format: functional
[12] = as §1, with “Ross river virus” for “CHIKV 99659”; format: functional; conditions: La Crosse virus
Onyong-nyong virus = experiment: as §1, with “O'nyong-nyong virus” for “CHIKV 99659”; format: functional
West Nile virus = experiment: as §1, with “West nile virus” for “CHIKV 99659”, “HEK293” for “Asian tiger mosquito C6/36”, “at 10 uM” for “and”; format: functional
Chikungunya virus [13] = experiment: Antiviral activity against CHIKV infected in IFN regulatory factor 3 telomerized human fibroblast cells assessed as reduction in virus titer in cell supernatant by measuring inhibition of plaque formation using Vero cells […] followed by infected with virus incubated for 24 hrs and measured following infection of supernatants with Vero cells for 48 hrs by plaque based …; format: functional; conditions: time 72 hrs
Chikungunya virus [14] = experiment: as §1, with “LR2006-OPY1” for “99659”; format: functional
Chikungunya virus [15] = format: functional, organism-based; conditions: 181-25, Vero, dose 10.0 µM, time 20.0 hrs
Mayaro virus = experiment: as §1, with “Mayaro virus TRVL” for “CHIKV 99659”; format: functional
Chikungunya virus [16] = experiment: Antiviral activity against resistance mutation induced CHIKV-117 infected in […] cells assessed as viral infectivity in Vero cells at 10 uM measured up to 24 hrs of post infection by supernatant was quantified by plaque assay; format: functional, organism-based; conditions: time hrs <=24
Chikungunya virus [17] = experiment: Antiviral activity against CHIKV-nLuc RNA transfected NHDF cells assessed as decrease in CHIKV RNA at 10 uM pretreated 1 hr before transfection measured after 12 hrs by Nano-Glo luciferase assay; format: functional, organism-based; conditions: time 13.0 hrs
Chikungunya virus [18] = format: functional, organism-based; conditions: 181-25, NHDF, dose 20.0 µM, time 13.0 hrs; remark: listed apart in the source
Chikungunya virus [19] = experiment: as §3, with “mouse NIH3T3” for “human NHDF”, “cells” for “cells at 10 uM”, “NIH3T3” for “NHDF”; format: functional; conditions: dose 10 µM
[20] = tested on: Venezuelan equine encephalitis virus; experiment: Antiviral activity against Venezuelan equine encephalitis virus TC83 infected in human […] cells assessed as reduction in virus titer in cell supernatant by measuring inhibition of plaque formation using Vero cells at 10 uM measured following infection of supernatants with Vero cells for 48 hrs pi by serial dilution plaque based methylene blue dye analysis; format: functional, NHDF
Chikungunya virus [21] = experiment: as §1, with “37997” for “99659”; format: functional; conditions: Chikungunya virus, 37997, C6
Chikungunya virus [22] = format: functional, organism-based; conditions: 181-25, NHDF, dose 20.0 µM, time 13.0 hrs; remark: listed apart in the source
Una virus = experiment: as §1, with “Una virus MAC150” for “CHIKV 99659”; format: functional
[23] = Cytotoxicity against HEK293 cells at 10 uM; format: cell-based; conditions: human
NHDF = experiment: as §2; format: cell-based; conditions: nhdf, 24 h
Chikungunya virus [24] = format: functional; conditions: 181-25, C6, time 48 hrs
Chikungunya virus [25] = format: functional, organism-based; conditions: 181-25, NIH3T3, dose 10.0 µM
Chikungunya virus [26] = experiment: as §3, with “cells” for “cells at 10 uM”; format: functional, organism-based
Chikungunya virus [27] = experiment: Antiviral activity against wild type CHIKV-117 infected in […] cells assessed as viral infectivity in Vero cells at 10 uM measured up to 24 hrs of post infection by supernatant was quantified by plaque assay; format: functional; conditions: time hrs <=24

Chain of Dihydroorotate dehydrogenase (quinone), mitochondrial (Q02127 whole entry): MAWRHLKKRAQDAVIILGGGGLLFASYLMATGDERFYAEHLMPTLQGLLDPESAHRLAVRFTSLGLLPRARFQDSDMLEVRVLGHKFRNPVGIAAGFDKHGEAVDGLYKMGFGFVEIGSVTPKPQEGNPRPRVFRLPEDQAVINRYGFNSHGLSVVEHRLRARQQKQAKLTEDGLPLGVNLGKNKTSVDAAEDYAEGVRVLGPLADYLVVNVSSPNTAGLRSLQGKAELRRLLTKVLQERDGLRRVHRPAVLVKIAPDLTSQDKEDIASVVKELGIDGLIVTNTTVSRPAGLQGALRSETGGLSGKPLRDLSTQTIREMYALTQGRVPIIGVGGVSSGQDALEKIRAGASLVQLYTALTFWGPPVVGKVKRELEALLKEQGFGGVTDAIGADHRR

Compound	inhibition (Chikungunya virus [1])	EC90 (Chikungunya virus [2]) [nM]	Activity (Chikungunya virus [3])	log(activity) (Chikungunya virus [5])	Activity (Chikungunya virus [6])	Activity (Chikungunya virus [7])	EC90 [8] [nM]	inhibition (Chikungunya virus [9])	IC50 [10] [nM]	Activity (Chikungunya virus [11])	EC90 [12] [nM]	EC90 (Onyong-nyong virus) [nM]	EC90 (Chikungunya virus [13]) [nM]	EC90 (Chikungunya virus [14]) [nM]	EC90 (Mayaro virus) [nM]	Activity (Chikungunya virus [16])	inhibition (Chikungunya virus [17])	EC90 (Chikungunya virus [19]) [nM]	EC90 (Chikungunya virus [21]) [nM]	further results
COc1cc2c(cc1NC(=O)c1ccc(C(C)(C)C)cc1)CCCCC2	Active	780	Active	4	inactive	Active	2900	Active	3500	Active	210	180	4870	150	250	Active	Active	1010	180	CC50 at 24 h [4]: 78500 nM; log(activity) (dengue virus type 2): 1.5; log(activity) (West Nile virus): 2; inhibition (Chikungunya virus [15]): Active; inhibition (Chikungunya virus [18]): Active; log(activity) [20]: 2.7; inhibition (Chikungunya virus [22]): Active; EC90 (Una virus): 340 nM; CC50 [23]: > 30000 nM
COc1cc2c(cc1NC(=O)c1ccc(C(C)(C)C)cc1)CCCC2	Active	1000	Active	2.5	inactive	Active	2100	Active	5000	Active	320	300	1030	400	5100	Active	Active	3160	3390	CC50 (NHDF): 169000 nM; EC90 (Chikungunya virus [24]): 1450 nM; Activity (Chikungunya virus [25]): Active; EC50 (Chikungunya virus [26]): 1450 nM; log(activity) (Chikungunya virus [27]): 1.5
